The source of these data is patent publication US20190016746A1, “AMINOGLYCOSIDE DERIVATIVES AND USES THEREOF IN TREATING GENETIC DISORDERS” (Eloxx Pharmaceuticals Ltd., priority 2016, published 2019).

For data set [1], the target named is eukaryotic cytoplasmic ribosome. The data set is described as follows: Eukaryotic in vitro translation inhibition, TNT T7 Quick Coupled Transcription/Translation System with luciferase plasmid. As to conditions: for IC50: read-out: Translation Inhibition IC50^Euk; for more specific to the eukaryotic ribosome than structurally related compound: NB156 vs NB74, NB157 vs NB124. Format: biochemical. The procedure:
(§1) Prokaryotic in vitro translation inhibition by the different aminoglycosides was quantified in coupled transcription/translation assays by using E. coli S30 extract for circular DNA with the pBESTluc plasmid (Promega), according to the manufacturer's protocol. Translation reactions (25 μL) that contained variable concentrations of the tested aminoglycoside were incubated at 37° C. for 60 minutes, cooled on ice for 5 minutes, and diluted with a dilution reagent (tris-phosphate buffer (25 mM, pH 7.8), DTT (2 mM), 1,2-diaminocyclohexanetetraacetate (2 mM), glycerol (10%), Triton X-100 (1%) and BSA (1 mg mL-1)) into 96-well plates. Eukaryotic in vitro translation inhibition was quantified by use of TNT® T7 Quick Coupled Transcription/Translation System with a luciferase T7 control DNA plasmid (Promega), according to the manufacturer protocol. Translation reactions (25 μL) containing variable concentrations of the tested aminoglycoside were incubated at 30° C. for 60 minutes, cooled on ice for 5 minutes, diluted with the dilution reagent and transferred into 96-well plates. In both prokaryotic and eukaryotic systems the luminescence was measured immediately after the addition of the Luciferase Assay Reagent (50 μL; Promega), and the light emission was recorded with a FLx800 Fluorescence Microplate Reader (Biotek). The half-maximal inhibition concentration (IC50) values were obtained from fitting concentration-response curves to the data of at least two independent experiments by using Grafit 5 software.
(§2) In all biological tests, all AGs were in their sulfate salt forms, and the concentrations refer to the free amine form of each AG. The eukaryotic and prokaryotic half-maximal-inhibition values (IC50^Euk and IC50^Pro) were quantified in coupled transcription/translation assays by using active luciferase detection as previously described. Minimal inhibitory concentration (MIC) values were determined by using the double-microdilution method.

In data set [2] the test system is E. coli R477-100. Kind of data set: Antibacterial activity, MIC by double-microdilution method. It is filed as cell-based. The note with it: for MIC: Escherichia coli, R477100, read-out: Antibacterial activity MIC E. coli R477/100. The procedure: (§3) Comparative antibacterial activities were determined in two representative strains of Gram-negative (E. coli R477-100) and Gram-positive (B. subtilis ATCC-6633) bacteria, by measuring the MIC values using the double-microdilution method according to the National Committee for Clinical Laboratory Standards (NCCLS) (NCCLS. National Committee for Clinical Laboratory Standards, Performance standards for antimicrobial susceptibility testing. Fifth information supplement: Approved Standard M100-S5; Villanova, Pa.: NCCLS, 1994.).
as §2
In general terms: In broth dilution the organism is exposed to a series of concentrations in liquid medium.

For data set [3], the system named is prokaryotic ribosome (E. coli S30 extract). The data set is described as follows: Prokaryotic in vitro translation inhibition, E. coli S30 extract with pBESTluc plasmid. It is filed as biochemical. As to conditions: read-out: Translation Inhibition IC50^Pro. On the procedure:
as §1, §2

Data set [4] has as its system human fibroblast cells. The note with it: cited from earlier work.
In data set [5] the test system is R3X nonsense mutation construct representing USH1 (PCDH15). Kind of data set: Dual luciferase in vitro readthrough assay, R3X construct. Format: biochemical. As to conditions: FIG. 3. An excerpt:
(§4) DNA fragments derived from PCDH15, CFTR, and IDUA cDNAs, including the tested nonsense mutation or the corresponding wild type (wt) codon, and four to six upstream and downstream flanking codons were created by annealing the following pairs of complementary oligonucleotides:
(§5) Fragments were inserted in frame into the polylinker of the p2Luc plasmid between either BamHI and SacI (p.R3X and p.R245X) or SalI and SacI (all the rest) restriction sites. For the in vitro readthrough assays, the obtained plasmids, with addition of the tested aminoglycosides were transcribed and translated using the TNT Reticulocyte Lysate Quick Coupled Transcription/Translation System. Luciferase activity was determined after 90 minutes of incubation at 30° C., using the Dual Luciferase Reporter Assay System (Promega™).
FIG. 3 presents comparative plots showing in vitro stop codon suppression levels induced by Compound 1 (-▪-), NB153 (-▴-), and NB155 (-Δ-) in R3X nonsense mutation construct representing USH1 genetic disease.

Data set [6] concerns premature termination codon (PTC). Kind of data set: Comparative in-vitro PTC suppression activity assays (Example 3). It is filed as biochemical. The note with it: preliminary. The procedure:
as §5

For data set [7], the system named is stop codon mutations of Table 3. The data set is described as follows: Dual-luciferase readthrough assay, broad arsenal of stop codon mutations. It is filed as biochemical. As to conditions: all tested mutations. The procedure: In these assays, the readthrough of a broad arsenal of stop codon mutations in the presence of NB156 and NB157 was tested. Briefly, NB156 and NB157 were tested at escalating doses for their read-through properties towards the nonsense mutation using the wild-type (WT) sequence of each specific complementary DNA (cDNA) as a control, and plasmids bearing the stop codon mutations in a dual-luciferase assay. DNA fragments derived from different cDNAs were prepared using either the WT or nonsense mutation, in which the sequences from the mutant or wild-type codon were surrounded by four to six upstream and downstream flanking codons. The cDNA sequence was inserted into the polylinker of the p2luc plasmid for each sequence.

Data set [8] relates to nonsense constructs R3X (USH1), R245X (USH1), Q70X (HS), G542X (CF). Kind of data set: Dual luciferase in vitro readthrough assay, four nonsense constructs. It is filed as biochemical. As to conditions: all mutations tested, FIGS. 4A-D; for readthrough activity relative to structurally related compound lacking 7′-hydroxyl: NB156 vs NB74, NB157 vs NB124.
Description: as §4, §5
Activity was tested using a collection of dual-luciferase reporter plasmids, containing different sequence contests around premature stop codons derived from the PCDH15, CFTR, and IDUA genes that underline USH1, CF, and MPS I-H, respectively. The exemplified nonsense reporters were R3X and R245X for USH1, G542X for CF, and Q70X for MPS I-H.
The results are averages of at least three independent experiments.

Data set [9] relates to B. subtilis ATCC-6633. The data set is described as follows: Antibacterial activity, MIC by double-microdilution method. The note with it: Table 2. Format: cell-based. On the procedure:
as §3, §2

Where [10] appears, read: Table 2, sulfate salts, concentrations refer to free amine form.

Read-outs that look alike come from different tables or passages of the source.

What is called IC50 is the concentration that inhibits the measured activity by half. Consider `CC(O)C1O[C@H](O[C@@H]2C(N)C[C@@H](N)C(O)C2O[C@@H]2O[C@H]([C@H](C)N)C(O)C2O)C(N)C(O)[C@@H]1O` (single isomer, unassigned) [NB124, reference compound], for which the concentration for half-maximal inhibition (IC50) was 1.5 ± 0.1 µM in data set [1] (setting [10]) and 1.1 ± 0.2 µM in [3] (setting [10]). Besides, the MIC in [2] worked out at 1270 µM.
As for `CN[C@@H]1[C@@H](O)[C@@H](O[C@@H]2[C@@H](O)[C@H](O[C@H]3O[C@H]([C@@H](C)O)[C@@H](O)[C@H](O)[C@H]3N)[C@@H](N)C[C@H]2N)OC[C@]1(C)O` [Compound G418, geneticin], in data set [4], the LD50 was 0.04 mg/mL.
Turning to `NC[C@H]1O[C@@H](OC2C(O)[C@H](N)CC(N)[C@H]2O[C@H]2OC(CO)[C@@H](O)C(O)C2N)C(O)C1O` (stereo partly shown) [NB30, reference compound], the IC50 stood at 31 ± 4 µM in data set [1] (Table 4) and 0.45 ± 0.03 µM in data set [3] (Table 4).
For the compound `C[C@H](N)[C@H]1O[C@@H](OC2C(O)[C@H](N)CC(N)[C@H]2O[C@H]2OC(CO)[C@@H](O)C(O)C2N)C(O)C1O` (stereo partly shown) [NB118, reference compound], the half-maximal inhibitory concentration (IC50) in data set [1] (Table 4) worked out at 15.5 ± 1.3 µM; in [3] (Table 4) it was 1.9 ± 0.2 µM.
Consider `N[C@H]1[C@@H](O[C@H]2[C@H](O)[C@@H](O)[C@H](N)C[C@@H]2N)O[C@H]([C@H](O)CO)[C@@H](O)[C@@H]1O` [NB153, (2R,3S,4R,5R,6S)-5-amino-6-(((1R,2R,3S,4R,6S)-4,6-diamino-2,3-dihydroxycyclohexyl)oxy)-2-((R)-1,2-dihydroxyethyl)tetrahydro-2H-pyran-3,4-diol], for which the IC50 in data set [1] (setting [10]) was 120 ± 14.5 µM; in [3] (setting [10]), 11 ± 1.2 µM. Moreover, the “in vitro readthrough activity relative to Compound 1” value in [5] is listed as “dramatically increases”.
On to `N[C@H]1[C@@H](O[C@H]2[C@H](O)[C@@H](O)[C@H](N)C[C@@H]2N)OC(CO)=C[C@@H]1O` [NB154, (1S,2R,3R,4S,6R)-4,6-diamino-3-(((2S,3R,4S)-3-amino-4-hydroxy-6-(hydroxymethyl)-3,4-dihydro-2H-pyran-2-yl)oxy)cyclohexane-1,2-diol], for which the IC50 in data set [1] (Table 4) was 376 ± 38.6 µM; in data set [3] (Table 4), 82.3 ± 11.9 µM. The “readthrough activity relative to NB82” value in [6] was “more or less similar activity”. Also, the “readthrough activity relative to paromamine” value in [6] is listed as approximately 3.5 fold.
For `N[C@H]1[C@@H](O[C@H]2[C@H](O)[C@@H](O)[C@H](N)C[C@@H]2N)O[C@H]([C@@H](O)CO)[C@@H](O)[C@@H]1O` [NB155, (2R,3S,4R,5R,6S)-5-amino-6-(((1R,2R,3S,4R,6S)-4,6-diamino-2,3-dihydroxycyclohexyl)oxy)-2-((S)-1,2-dihydroxyethyl)tetrahydro-2H-pyran-3,4-diol], the IC50 in data set [1] (setting [10]) came out at 516 ± 15 µM; in [3] (setting [10]), 91.9 ± 8.4 µM. Also, the “in vitro readthrough activity relative to Compound 1” value in data set [5] is listed as “somewhat higher activity”.
On to `NC[C@H]1O[C@@H](O[C@@H]2[C@@H](O)[C@H](N)C[C@H](N)[C@H]2O[C@H]2O[C@H]([C@H](O)CO)[C@@H](O)[C@H](O)[C@H]2N)[C@@H](O)[C@H]1O` [NB156, (2R,3S,4R,5R,6S)-5-amino-6-(((1R,2R,3S,4R,6S)-4,6-diamino-2-(((2S,3S,4R,5R)-5-(aminomethyl)-3,4-dihydroxytetrahydrofuran-2-yl)oxy)-3-hydroxycyclohexyl)oxy)-2-((R)-1,2-dihydroxyethyl)tetrahydro-2H-pyran-3,4-diol], for which the “stop-codon mutation readthrough activity compared to NB74” value in data set [7] is reported as “more active than NB74”. In addition, in data set [8], the “readthrough activity relative to gentamicin” value is on record as “significantly better” and the “readthrough activity relative to structurally related compound lacking 7′-hydroxyl” value is reported as “substantially better”. Besides, the “more specific to the eukaryotic ribosome than structurally related compound” value in data set [1] stood at 1.85 fold. Also, in [1] (setting [10]), the IC50 came to 7.5 ± 0.5 µM. Moreover, the 50% inhibitory concentration (IC50) in data set [3] (setting [10]) was 0.7 ± 0.1 µM.
On to `C[C@H](N)[C@H]1O[C@@H](O[C@@H]2[C@@H](O)[C@H](N)C[C@H](N)[C@H]2O[C@H]2O[C@H]([C@H](O)CO)[C@@H](O)[C@H](O)[C@H]2N)[C@@H](O)[C@H]1O` [NB157, (2R,3S,4R,5R,6S)-5-amino-6-(((1R,2R,3S,4R,6S)-4,6-diamino-2-(((2S,3S,4R,5R)-5-((S)-1-aminoethyl)-3,4-dihydroxytetrahydrofuran-2-yl)oxy)-3-hydroxycyclohexyl)oxy)-2-((R)-1,2-dihydroxyethyl)tetrahydro-2H-pyran-3,4-diol], for which, in data set [8], the “readthrough activity relative to gentamicin” value was “significantly better” and the “readthrough activity relative to structurally related compound lacking 7′-hydroxyl” value is listed as “better”. Moreover, in data set [1], the “more specific to the eukaryotic ribosome than structurally related compound” value came out at 1.25 fold. Moreover, the IC50 in data set [1] (setting [10]) amounted to 1.2 µM.
As to `NC[C@H]1O[C@@H](O[C@@H]2C(O)[C@H](N)CC(N)[C@H]2O[C@H]2OC(CO)=CC(O)[C@@H]2N)C(O)[C@H]1O` (stereo partly shown) [NB158], the IC50 in [1] (Table 4) is 70.7 ± 2.4 µM; in [3] (Table 4) it was 36.4 ± 3.5 µM. Moreover, the MIC in data set [2] was more than 192 µg/mL.
As for `C[C@H](N)[C@H]1O[C@@H](O[C@@H]2C(O)[C@H](N)CC(N)[C@H]2O[C@H]2OC(CO)=CC(O)[C@@H]2N)C(O)[C@H]1O` (stereo partly shown) [NB159], the IC50 came to 47.9 ± 3.3 µM in data set [1] (Table 4) and 134 ± 2.8 µM in data set [3] (Table 4). The MIC in [2] was more than 192 µg/mL.
For `N[C@H]1[C@@H](O[C@H]2[C@H](O)[C@@H](O)[C@H](N)C[C@@H]2N)O[C@H](CO)[C@@H](O)[C@@H]1O` [Paro., paromamine, reference compound], the values for the IC50 in [1] (Table 4) and in [3] (Table 4) were 760 ± 79 µM and 14 ± 1.2 µM, respectively.
Turning to gentamicin [reference compound], the figures for the half-maximal inhibitory concentration (IC50) in data set [1] (setting [10]) and in [3] (setting [10]) were 62 µM and 0.03 µM, respectively. Also, the “Antibacterial Activity MIC B. Subtilis ATCC6633” value in [9] is less than 0.75 µM. Further, the “Antibacterial Activity MIC E. Coli R 477/100” value in data set [2] (Table 2) stood at 6 µM.
